Data: patent US4689326A, “Process for controlling hyperlipidemia” (Research Corporation, priority 1985, dated 1987)

How the values were obtained:
HDL = experiment: Lipoprotein fractions in Rats, Example 11: HDL; type: in vivo, Sprague Dawley male rats; conditions: oral 20 mg/kg/day, fourteen days, ± SD
Method: A group of six Sprague Dawley male rats were treated with 20 mg/kg/day of 3,4,5,6-dibenzohomopiperidine. The treatment was applied orally. An equal number of Sprague Dawley male rats, having approximately the same weight, were utilized as an untreated control. At the end of fourteen days the control and treated rats were sacrificed. Blood was collected from the abdominal aorta and lipoprotein fractions were obtained by the method of Hatch and Lees [Adv. Lipid Rees., 6, 1 (1968)] and Havel et al. [J. Clin Invest., 34, 1345 (1955)]. Each of the fractions were analyzed for cholesterol, triglycerides, neutral lipids, phospholipids and protein levels.

[1] = target: T1, Acyl CoA Cholesterol Acyl (Mus musculus, UniProt O88908); experiment: In vitro enzyme activity, liver homogenate: acyl CoA cholesterol acyl transferase; type: biochemical, CF1 male mouse; conditions: ± SD, N = 6, read-out: Percent Control, in vitro enzyme activity
T1 construct: 10% homogenates of CF1 male mouse liver; from tissue; host or cells: CF1 male mouse liver, 10% homogenate
T1 sequence (O88908 1-525): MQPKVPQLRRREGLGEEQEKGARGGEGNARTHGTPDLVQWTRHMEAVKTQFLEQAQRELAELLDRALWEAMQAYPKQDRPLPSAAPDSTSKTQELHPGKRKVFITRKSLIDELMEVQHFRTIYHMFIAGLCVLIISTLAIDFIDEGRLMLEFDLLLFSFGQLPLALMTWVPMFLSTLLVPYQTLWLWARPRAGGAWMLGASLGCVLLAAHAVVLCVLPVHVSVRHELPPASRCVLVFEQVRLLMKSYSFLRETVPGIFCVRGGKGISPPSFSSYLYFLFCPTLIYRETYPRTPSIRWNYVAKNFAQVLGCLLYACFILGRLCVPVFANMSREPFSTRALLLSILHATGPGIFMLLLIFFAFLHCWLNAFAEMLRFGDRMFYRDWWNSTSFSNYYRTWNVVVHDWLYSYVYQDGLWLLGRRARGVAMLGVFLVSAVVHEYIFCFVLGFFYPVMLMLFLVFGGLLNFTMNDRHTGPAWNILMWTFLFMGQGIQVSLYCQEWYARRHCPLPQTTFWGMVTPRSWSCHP
Method: In vitro enzymatic studies were undertaken using 10% homogenates of CF1 male mouse liver with […] of compound 3,4,5,6-dibenzohomopiperidine. In addition, in vivo enzymatic studies were performed, again using 10% liver homogenates (prepared in 0.25 M sucrose plus 0.001 M (ethylenedinitrilo)-tetraacetic acid, ph 7.25 from CF1 male mice obtained after administering 3,4,5,6-dibenzohomopiperidine for 16 days at a concentration ranging from 10 to 60 mg/kg/day, intraperitoneally.
The following enzyme activities were determined by following standard literature procedures: acetyl coenzyme synthetase; adenosine triphosphate dependent citrate lyase; mitochondrial citrate exchange; cholesterol/7 hydroxylase; 3-hydroxy-3-methyl-glutaryl coenzyme A reductase; acetyl coenzyme A carboxylase activity; fatty acid synthetase activity; sn-glycerol-3-phosphate acyl transferase activity; phosphatidate phosphohydrolase activity; cholesterol acyl transferase; and heparin activated hepatic lypoprotein lipase. Protein was determined for all enzyme assays by the Lowry et al. technique (J. Biol. Chem, 193, 265 (1951)).

## c1ccc2c(c1)CNCc1ccccc1-2 [Compound 3, 3,4,5,6-dibenzohomopiperidine]
HDL
  Cholesterol, concentration as a function of control: 106 ± 5%
  Neutral Lipids, concentration as a function of control: 59 ± 5%
  Phospholipids, concentration as a function of control: 64 ± 3%
  Protein, concentration as a function of control: 106 ± 7%
  Triglycerides, concentration as a function of control: 40 ± 2%
[1]; 50 μM
  remaining activity at 50 µM: 60 ± 6%
[1]; 100 μM
  remaining activity at 100 µM: 59 ± 5%
[1]; 200 μM
  remaining activity at 200 µM: 3 ± 1%
